Measured values as given in patent publication US10821142B2, “Cancer treatment and diagnosis” (priority 2015, dated 2020).

Key:
type I IFN production = assay: IFNB induction (qPCR) in normal and colon cancer cells treated with AOM or DMH; format: cell-based, human; details: 15 mM for 20 hours
Experimental: FIG. 22. Normal and colon cancer cells were treated with AOM or DMH at 15 mM for 20 hours. IFNB induction was analyzed by qPCR. STING, IRF3 and NF-kB translocation was examined: +, translocation; −, no translocation.
The question arises as to why the STING-signaling pathway may be inhibited in colon adenocarcinoma. Recently, it was shown that STING-deficient cells and mice are sensitive to AOM-induced DNA damage. In this situation, the STING pathway may play a role in the DNA-damage response pathway, to induce the production of cytokines which facilitate tissue repair or damaged cell removal (Chatzinikolaou et al., 2014; Kidane et al., 2014; Lord and Ashworth, 2012). As such, innate immune induction of CA cells in response to DNA damaging agents was examined. […] Thus, the inhibition of the STING pathway may enable DNA damaged cells, harboring mutations, to escape part of the DNA damage response and the immune surveillance machinery to progress into a tumorigenic state.

colon = details: mice; single injection of AOM followed by DSS via drinking water; cited from earlier work
[1] = tested on: STING-dependent genes in murine embryonic fibroblasts; assay: Gene array and qPCR of WT and SKO MEFs treated with AOM or DMH; format: cell-based, mouse; details: AOM 0.14 mM for 8 hours
Experimental: (§1) FIGS. 1A-1E show activation of STING-dependent genes by azoxymethane (AOM) (FIG. 1A) Gene array analysis of Wild type (WT) and STING deficient (SKO) mouse embryonic fibroblasts (MEFs) treated with AOM at 0.14 mM for 8 hours (Left) and 1,2-dimethylhydrazine (DMH) at 1 mM for 8 hours (Right). Highest variable genes are shown. Rows represent individual genes; columns represent individual samples. Grayscale indicates transcript levels below, equal to, or above the mean. Scale represents the intensity of gene expression (log 2 scale ranges between −2.4 and 2.4). (FIG. 1B) qPCR analysis of Cxcl10 and Ifit3 in MEFs treated with AOM and DMH same as FIG. 1A. (FIG. 1C) qPCR analysis of Cxcl10 in Human epithelial cell (FHC) treated with AOM and DMH at 1 mM for 24 hours. (FIG. 1D) FHC cells were transfected with STING or control siRNA for 72 hours followed by AOM and DMH treatment same as FIG. 1C, and were then subjected to Cxcl0 mRNA expression (Left). STING expression level after siRNA treatment was determined by qPCR (Right). […] (FIG. 1E) STING Immunohistochemistry staining of the colon tissue from WT and SKO mice (Left) and Human. All images were shown at original magnification, 200×.
Towards these objectives, the AOM/DSS model, as described above, was utilized and analyzed the effects of AOM and precursor DMH upon STING signaling. Principally, wild type (WT) or STING-deficient (SKO) murine embryonic fibroblasts (MEF) were treated in vitro with DMH or metabolite AOM for 8 hours and microarray analysis performed to analyze the consequences to gene expression. […] The observed STING-dependent gene expression was confirmed following RT-PCR analysis of select mRNA such as Cxcl10 and IFIT3 (FIG. 1B). […] Thus, the DNA damaging agent DMH/AOM can invoke STING-dependent signaling.
Total RNA was isolated from cells or tissues with RNeasy Mini kit (74104, Qiagen, Valencia, Calif.). RNA quality was analyzed by Bionalyzer RNA 6000 Nano (Agilent Technologies, Santa Clara Calif.). […]

[2] = tested on: STING-dependent genes in FHC cells; assay: qPCR of Cxcl10 in human colon epithelial cells (FHC) treated with AOM; format: cell-based; details: FHC treated with RNAi to STING
Experimental: as §1
Towards these objectives, the AOM/DSS model, as described above, was utilized and analyzed the effects of AOM and precursor DMH upon STING signaling. […]

IRF3/NF-κB translocation = assay: Immunofluorescence of IRF3/NF-κB translocation in FHC treated with DMH/AOM; format: cell-based, human; details: 3 mM for 48 hours
Experimental: FIGS. 8A-8C show fluorescence microscopy analysis (related to FIG. 1) of DAPI staining in WT and SKO MEFs treated with 3 mM of AOM of 3 mM of DMH (FIG. 8A) and anti-dsDNA staining and the ration of cytoplasm to nucleus (FIG. 8B) in Human normal colon epithelial cells (FHC) treated with 3 mM of AOM or 3 mM of DMH for 48 hours. (FIG. 8C) Immunofluorescence microscopy analysis of FHC treated with AOM and DMH sane as FIG. 8A for 48 hours using p65 or IRF3 antibody. Images shown at original magnification, 160×.
To start determining the mechanisms underlining the cause of DMH/AOM-induced STING activity, MEF or FHC cells were treated with these drugs and observed by two different approaches, DAPI staining and immunofluorescence (IF) using anti-dsDNA antibody, the leakage of DNA into the cytosol (FIGS. 8A and 8B). Cytosolic DNA activates STING and stimulates STING/TBK1 trafficking via autophagy to endosomal regions harboring the transcription factors IRF3 and NF-κB, which triggers cytokine production. […]
Cells were cultured and treated in their appropriate media on Lab-Tek II chamber slides. […] Immunostaining was performed with rabbit-anti-STING polyclonal followed by fluorescence conjugated secondary antibodies (FITC-goat-anti-rabbit) (Invitrogen). […]

SMILES: CN=[N+](C)[O-] [AOM, Azoxymethane]
- production of type I IFN (type I IFN production; CA cells with defective STING activated IRF3 or NF-kB activity): unable to generate type I IFN
- production of type I IFN (type I IFN production; normal colon epithelial (CCD841) and LS123): able to induce the production of type I IFN
- colon cancer induced (colon): ~100%
- mRNA production of innate immune related genes ([1]; MEFs lacking STING (SKO)): marked decrease in the production of the same genes
- mRNA production of innate immune related genes ([1]; WT MEFs): activated mRNA production of a wide array of innate immune related genes
- production of Cxcl10 [2]: similarly reduced
- translocation of IRF3/NF-κB (IRF3/NF-κB translocation): could instigate the translocation of IRF3/NF-κB
